Data on 83 compounds can be found in the Kinase Knowledgebase extract (Sharma et al. 2016).

Bounds are passed on as bounds.

One may read the IC50 as the concentration that inhibits the measured activity by half. The low end stands for inhibition by little substance, the high end for a need for much substance.

For this test, the target named is PIK3CA (human) (UniProt P42336). As to the kind of experiment: Assessment of PIK3CA Kinase Activity.
PIK3CA (human), sequence (P42336 whole entry, looked up): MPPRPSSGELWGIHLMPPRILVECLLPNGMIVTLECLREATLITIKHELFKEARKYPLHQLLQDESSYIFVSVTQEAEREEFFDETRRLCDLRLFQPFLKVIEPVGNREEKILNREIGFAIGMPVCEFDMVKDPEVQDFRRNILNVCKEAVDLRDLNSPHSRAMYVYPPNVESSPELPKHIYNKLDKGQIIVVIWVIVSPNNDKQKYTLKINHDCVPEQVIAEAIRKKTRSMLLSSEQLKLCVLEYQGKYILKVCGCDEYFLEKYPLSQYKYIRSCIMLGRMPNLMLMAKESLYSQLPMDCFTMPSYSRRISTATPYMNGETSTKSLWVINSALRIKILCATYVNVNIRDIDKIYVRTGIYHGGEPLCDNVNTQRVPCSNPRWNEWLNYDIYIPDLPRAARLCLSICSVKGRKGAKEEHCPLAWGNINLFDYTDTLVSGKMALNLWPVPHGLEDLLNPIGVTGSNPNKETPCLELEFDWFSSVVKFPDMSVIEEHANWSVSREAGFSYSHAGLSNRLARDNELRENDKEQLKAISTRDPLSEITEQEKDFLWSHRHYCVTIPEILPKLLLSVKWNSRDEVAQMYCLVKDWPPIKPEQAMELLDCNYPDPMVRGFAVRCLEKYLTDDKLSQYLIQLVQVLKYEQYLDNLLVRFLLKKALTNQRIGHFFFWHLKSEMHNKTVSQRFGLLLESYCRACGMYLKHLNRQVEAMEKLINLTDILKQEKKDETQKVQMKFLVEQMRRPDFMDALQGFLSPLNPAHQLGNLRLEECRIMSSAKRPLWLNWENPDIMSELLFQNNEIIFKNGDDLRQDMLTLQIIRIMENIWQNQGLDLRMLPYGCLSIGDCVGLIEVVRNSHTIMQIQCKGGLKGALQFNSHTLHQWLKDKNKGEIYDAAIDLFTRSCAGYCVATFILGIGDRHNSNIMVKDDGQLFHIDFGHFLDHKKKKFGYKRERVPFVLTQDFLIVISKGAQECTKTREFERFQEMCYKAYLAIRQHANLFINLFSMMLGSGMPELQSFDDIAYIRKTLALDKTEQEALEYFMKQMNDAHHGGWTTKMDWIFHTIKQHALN
In the case of `CNc1nc(-c2cc(C)c3c(c2)CN(c2nc(N)nc(C)c2C(C)C)CCO3)cs1`, the IC50 fell in the range of 100 to 500 nM.
`Cc1cc(-c2cnc(Cl)c(NS(C)(=O)=O)c2)cc2c1OCCN(c1nc(N)nc(C)c1C(C)C)C2` displayed an IC50 of at most 100 nM.
The figure for `Cc1cc(-c2cnc3sc(N)nc3c2)cc2c1OCCN(c1nc(C(C)N)nc(C)c1C(C)C)C2` (stereo not drawn) is at most 100 nM; for `Cc1cc(-c2cnc3sc(N)nc3c2)cc2c1OCCN(c1nc(CNCC(F)(F)F)nc(C)c1C(C)C)C2` it is at most 100 nM; for `Cc1cc(-c2cnc3sc(N)nc3c2)cc2c1OCCN(c1ccc(C#N)cn1)C2` it is 100 to 500 nM.
The value for `Cc1ncc(C(C)C)c(N2CCOc3c(C)cc(-c4cnc5sc(N)nc5c4)cc3C2)n1` was at most 100 nM.
The figure for `C=Cc1c(C)nc(N)nc1N1CCOc2c(C)cc(-c3nnc(N)s3)cc2C1` is at most 100 nM.
Compound `C=C(C)c1c(C)ncnc1N1CCOc2c(C)cc(-c3cnc4sc(N)nc4c3)cc2C1` returned an IC50 of at most 100 nM.
The value for `Cc1cc(-c2cnc3sc(N)nc3c2)cc2c1OCCN(c1nccc(N)n1)C2` was 100 to 500 nM; that for `Cc1cc(-c2cncnc2)cc2c1OCCN(c1nc(N)nc(C)c1C(C)C)C2` was 100 to 500 nM.
In turn, `Cc1cc(-c2nnc(N)s2)cc2c1OCCN(c1ncnc(C)c1C(C)C)C2` had an IC50 of at most 100 nM.
`COCCc1c(C)ncnc1N1CCOc2c(C)cc(-c3cnc4sc(N)nc4c3)cc2C1` returned an IC50 of at most 100 nM.
The figure for `CCNCc1nc(C)c(C(C)C)c(N2CCOc3c(C)cc(-c4cnc5sc(N)nc5c4)cc3C2)n1` is at most 100 nM.
The figure for `Cc1cc(-c2cnc3sc(N)nc3c2)cc2c1OCCN(c1nc([C@@H]3CC(F)(F)CN3)nc(C)c1C(C)C)C2` is at most 100 nM; for `Cc1cc(-c2nnc(N)s2)cc2c1OCCN(c1nc(CNCC(F)F)nc(C)c1C(C)C)C2` it is at most 100 nM; for `COCc1nc(C)c(C(C)C)c(N2CCOc3c(C)cc(-c4cnc5sc(N)nc5c4)cc3C2)n1` it is at most 100 nM.
With `Cc1cc(-c2cnc(Cl)c(NS(C)(=O)=O)c2)cc2c1OCCN(c1nc(N)ncc1C(F)(F)F)C2`, the IC50 was at most 100 nM.
The value for `Cc1cc(-c2cnc3sc(N)nc3c2)cc2c1OCCN(c1nc(CN(C)C)nc(C)c1C(C)C)C2` was at most 100 nM.
The figure for `Cc1cc(-c2cnc3sc(N)nc3c2)cc2c1OCCN(c1ncccc1C#N)C2` is 100 to 500 nM; for `Cc1cc(-c2cnc3sc(N)nc3c2)cc2c1OCCN(c1nc(CC#N)nc(C)c1C(C)C)C2` it is at most 100 nM; for `Cc1cc(-c2ccn[nH]2)cc2c1OCCN(c1nc(N)nc(C)c1C(C)C)C2` it is at most 100 nM.
In turn, `Cc1cc(-c2nnc(N)s2)cc2c1OCCN(c1nc(CN(C)CC(F)F)nc(C)c1C(C)C)C2` returned a half-inhibitory concentration (IC50) of at most 100 nM.
In turn, `COc1cncc(-c2cc(C)c3c(c2)CN(c2nc(N)nc(C)c2C(C)C)CCO3)c1` came in with an IC50 of at most 100 nM.
Compound `CCc1nc(CN(C)C)nc(N2CCOc3c(C)cc(-c4cnc5sc(N)nc5c4)cc3C2)c1C(C)C` returned an IC50 of at most 100 nM.
The value for `Cc1cnccc1N1CCOc2c(C)cc(-c3cnc4sc(N)nc4c3)cc2C1` was at most 100 nM; that for `CNCc1nc(C)c(C(C)C)c(N2CCOc3c(C)cc(-c4cnc5sc(N)nc5c4)cc3C2)n1` was at most 100 nM.
With `Cc1cc(-c2cnc3sc(N)nc3c2)cc2c1OCCN(c1nc(C(F)F)nc(C)c1C(C)C)C2`, the IC50 was at most 100 nM.
The value for `Cc1cc(-c2nnc(N)s2)cc2c1OCCN(c1ncncc1C(C)C)C2` was at most 100 nM; that for `Cc1nc(N)nc(N2CCOc3ccc(-c4cnc5sc(N)nc5c4)cc3C2)c1C(C)C` was at most 100 nM.
The figure for `CSc1nc(Cl)c(C(C)(C)O)c(N2CCOc3c(C)cc(-c4cnc5sc(N)nc5c4)cc3C2)n1` is 100 to 500 nM.
The value for `Cc1cc(-c2cnc3sc(N)nc3c2)cc2c1OCCN(c1nc(CN(C)C(C)(C)C)nc(C)c1C(C)C)C2` was at most 100 nM.
In turn, `Cc1cc(-c2cnc(Cl)c(NS(C)(=O)=O)c2)cc2c1OCCN(c1ncc(C(F)(F)F)c(N)n1)C2` returned an IC50 of at most 100 nM.
The value for `Cc1nc2cc(-c3cc(C)c4c(c3)CN(c3nc(N)nc(C)c3C(C)C)CCO4)cnc2[nH]1` was at most 100 nM; that for `COc1nc(C)c(C(C)C)c(N2CCOc3c(C)cc(-c4cnc5sc(N)nc5c4)cc3C2)n1` was at most 100 nM.
`Cc1cc(-c2cn[nH]c2)cc2c1OCCN(c1nc(N)nc(C)c1C(C)C)C2` registered an IC50 of at most 100 nM.
The figure for `Cc1cc(-c2cnc3sc(N)nc3c2)cc2c1OCCN(c1nc(CNCC(F)F)nc(C)c1C(C)C)C2` is at most 100 nM.
On to `Cc1nc(C)c(C(C)C)c(N2CCOc3c(C)cc(-c4cnc5sc(N)nc5c4)cc3C2)n1`, for which the IC50 was at most 100 nM.
The figure for `Cc1cc(-c2cnc3sc(N)nc3c2)cc2c1OCCN(c1ncccc1C(N)=O)C2` is 100 to 500 nM; for `Cc1cc(-c2cnc3sc(N)nc3c2)cc2c1OCCN(c1nc(N)nc(C)c1CC1CC1)C2` it is at most 100 nM; for `COc1ccc(-c2cc(C)c3c(c2)CN(c2nc(N)nc(C)c2C(C)C)CCO3)cn1` it is at most 100 nM.
Consider `Cc1cc(-c2cnc3sc(N)nc3c2)cc2c1OCCN(c1nc(CN(C)CCF)nc(C)c1C(C)C)C2`, for which the IC50 is at most 100 nM.
The figure for `Cc1cc(-c2nnc(N)s2)cc2c1OCCN(c1nc(N)nc(C)c1C)C2` is at most 100 nM; for `C=Cc1c(Cl)nc(N)nc1N1CCOc2c(C)cc(-c3cnc4sc(N)nc4c3)cc2C1` it is at most 100 nM.
The figure for `COCCOc1nc(C)c(C(C)C)c(N2CCOc3c(C)cc(-c4cnc5sc(N)nc5c4)cc3C2)n1` is at most 100 nM.
For `Cc1cc(-c2cnc(Cl)c(NS(C)(=O)=O)c2)cc2c1OCCN(c1nc(CNCC(F)F)nc(C)c1C(C)C)C2`, the IC50 is at most 100 nM.
The value for `Cc1cc(-c2cnc3sc(N)nc3c2)cc2c1OCCN(c1nc(CO)nc(C)c1C(C)C)C2` was at most 100 nM; that for `Cc1cc(-c2cnc3sc(N)nc3c2)cc2c1OCCN(c1nc(C3CCCN3C)nc(C)c1C(C)C)C2` (stereo not drawn) was at most 100 nM; that for `Cc1cc(-c2cnc3sc(N)nc3c2)cc2c1OCCN(c1ncc(F)c(N)n1)C2` was at most 100 nM.
The figure for `Cc1cc(-c2cnc3sc(N)nc3c2)cc2c1OCCN(c1ncnc3c1CC(C)(C)C=C3)C2` is at most 100 nM.
The figure for `Cc1nc2ccc(-c3cc(C)c4c(c3)CN(c3ncnc5ccc(I)cc35)CCO4)cc2[nH]1` is at most 100 nM; for `Cc1cc(-c2cnc(Cl)c(NS(C)(=O)=O)c2)cc2c1OCCN(c1nc(C(N)=O)nc(C)c1C(C)C)C2` it is at most 100 nM; for `Cc1cc(-c2cn(C)nc2C)cc2c1OCCN(c1nc(N)nc(C)c1C(C)C)C2` it is at most 100 nM.
Take `Cc1cc(-c2ccc(N)nc2)cc2c1OCCN(c1nc(N)nc(C)c1C(C)C)C2`: the IC50 is 100 to 500 nM.
On to `Cc1cc(-c2cnc(Cl)c(NS(C)(=O)=O)c2)cc2c1OCCN(c1ncc(C#N)c(N)n1)C2`, for which the IC50 was at most 100 nM.
The compound `CC(=O)c1c(C)ncnc1N1CCOc2c(C)cc(-c3cnc4sc(N)nc4c3)cc2C1` gave an IC50 of at most 100 nM.
The value for `Cc1cc(-c2cnc3sc(N)nc3c2)cc2c1OCCN(c1nc(N)nc(Cl)c1C(C)C)C2` was at most 100 nM.
The value for `Cc1cc(-c2cnc(Cl)c(NS(C)(=O)=O)c2)cc2c1OCCN(c1nc(C(=O)NCCN(C)C)nc(C)c1C(C)C)C2` was at most 100 nM; that for `COc1cc(-c2cnc3sc(N)nc3c2)cc2c1OCCN(c1nc(N)nc(C)c1C(C)C)C2` was at most 100 nM.
Turning to `Cc1cc(-c2cnc3sc(N)nc3c2)cc2c1OCCN(c1nc([C@@H]3C[C@@H](F)CN3)nc(C)c1C(C)C)C2`, the IC50 was at most 100 nM.
The value for `Cc1cc(-c2cnc3sc(N)nc3c2)cc2c1OCCN(c1nc(CN3CCC(F)(F)C3)nc(C)c1C(C)C)C2` was at most 100 nM.
The figure for `COCCc1cnc(C)nc1N1CCOc2c(C)cc(-c3cnc4sc(N)nc4c3)cc2C1` is at most 100 nM.
The compound `Cc1cc(-c2cnc3sc(N)nc3c2)cc2c1OCCN(c1ncncc1C(C)C)C2` had an IC50 of at most 100 nM.
The figure for `Cc1cc(-c2cnc3sc(N)nc3c2)cc2c1OCCN(c1nc(C(C)O)nc(C)c1C(C)C)C2` (stereo not drawn) is at most 100 nM; for `Cc1cc(-c2cnc3nc[nH]c3c2)cc2c1OCCN(c1nc(CNCC(F)F)nc(C)c1C(C)C)C2` it is at most 100 nM; for `Cc1ncc(C)c(N2CCOc3c(C)cc(-c4nnc(N)s4)cc3C2)n1` it is 100 to 500 nM.
The figure for `COc1ncc(-c2cc(C)c3c(c2)CN(c2nc(N)nc(C)c2C(C)C)CCO3)cn1` is at most 100 nM.
In turn, `Cc1cc(-c2cnc(Cl)c(NS(=O)(=O)C(F)(F)F)c2)cc2c1OCCN(c1nc(N)nc(C)c1C(C)C)C2` yielded an IC50 of at most 100 nM.
The figure for `Cc1cc(-c2cnc(N)s2)cc2c1OCCN(c1nc(N)nc(C)c1C(C)C)C2` is at most 100 nM; for `CCN(Cc1nc(C)c(C(C)C)c(N2CCOc3c(C)cc(-c4cnc5nc[nH]c5c4)cc3C2)n1)CC(F)F` it is at most 100 nM.
The figure for `Cc1cc(-c2cnc3sc(N)nc3c2)cc2c1OCCN(c1nc(C3CNC3)nc(C)c1C(C)C)C2` is at most 100 nM; for `Cc1cc(-c2cnc3sc(N)nc3c2)cc2c1OCCN(c1nc(CN)nc(C)c1C(C)C)C2` it is at most 100 nM.
The value for `Cc1cc(-c2cnc(N)c(S(N)(=O)=O)c2)cc2c1OCCN(c1nc(N)nc(C)c1C(C)C)C2` was at most 100 nM.
As for `Cc1cc(-c2cnc3sc(N)nc3c2)cc2c1OCCN(c1nc(N3CCN(C)CC3)nc(C)c1C(C)C)C2`, the IC50 was at most 100 nM.
The value for `COCC(C)c1c(C)nc(C)nc1N1CCOc2c(C)cc(-c3cnc4sc(N)nc4c3)cc2C1` (stereo not drawn) was at most 100 nM; that for `CCc1nc(CN(C)C)nc(N2CCOc3c(C)cc(-c4cnc5sc(N)nc5c4)cc3C2)c1CC` was at most 100 nM; that for `Cc1cc(-c2cnc3sc(N)nc3c2)cc2c1OCCN(c1nccnc1C#N)C2` was 100 to 500 nM.
The figure for `Cc1cc(-c2cnc(N)nc2)cc2c1OCCN(c1nc(N)nc(C)c1C(C)C)C2` is at most 100 nM; for `Cc1cc(-c2nnc(N)s2)cc2c1OCCN(c1ncnc(C)c1C)C2` it is at most 100 nM.
The figure for `C=C(C)c1c(C)nc(N)nc1N1CCOc2c(C)cc(-c3cnc4sc(N)nc4c3)cc2C1` is at most 100 nM; for `CCN(CCF)Cc1nc(C)c(C(C)C)c(N2CCOc3c(C)cc(-c4cnc5sc(N)nc5c4)cc3C2)n1` it is at most 100 nM.
Compound `COCCc1c(C)nc(C)nc1N1CCOc2c(C)cc(-c3cnc4sc(N)nc4c3)cc2C1` registered an IC50 of at most 100 nM.
The value for `CCCc1c(C)nc(N)nc1N1CCOc2c(C)cc(-c3cnc4sc(N)nc4c3)cc2C1` was at most 100 nM; that for `Cc1cc(-c2cccnc2)cc2c1OCCN(c1nc(N)nc(C)c1C(C)C)C2` was at most 100 nM.
